The values that follow come from patent US11578080B2, “Thienopyrimidones” (Boehringer Ingelheim International GmbH, priority 2019, dated 2023).

One data set deals with human TRPA1 ion channel (Homo sapiens (Human), UniProt O75762). Nature of the data set: Assay A: TRPA1 assay (FLIPR calcium, AITC agonism, HEK293 over-expressing human TRPA1). Type of data set: cell-based. Particulars: HEK293 over-expressing human TRPA1, AITC 10 μM, FLIPRtetra; read-out: hTRPA1 IC50. The protocol:
A human HEK293 cell line over-expressing the human TRPA1 ion channel (Perkin Elmer, Product No. AX-004-PCL) was used as a test system for compound efficacy and potency. Compound activity was determined by measuring the effect of compounds on intracellular calcium concentration induced by AITC (Allylisothiocyanat) agonism in a FLIPRtetra system (Molecular Devices).
The cells were obtained as frozen cells in cryo-vials and stored until use at −150° C. Cells were grown in culture medium (MEM/EBSS medium with 10% FCS and 0.4 mg/ML Geneticin). […] For sub-culturing cells were detached from flasks by Versene. At the day before the assay, cells were detached, washed twice with medium (MEM/EBSS medium with 10% FCS) and 20000 cells in 20 μl/well were seeded to Poly D-Lysin biocoated 384-well plates (black, clear bottom, Cat. 356697) from Corning. Plates were incubated for 24 hours at 37° C./5% CO2 before use in the assay.
The test compounds were dissolved in 100% DMSO at a concentration of 10 mM and in a first step diluted in DMSO to a concentration of 5 mM, followed by serial dilution steps in 100% DMSO. Dilution factor and number of dilution steps may vary according to needs. Typically 8 different concentrations by 1:5 dilutions were prepared, further intermediate dilutions (1:20) of the substances were carried out with HBSS/HEPES buffer (1×HEPES, Cat. 14065 from Gibco, 20 mM HEPES, Cat. 83264 from SIGMA, 0.1% BSA Cat. 11926 from Invitrogen, pH 7,4
At the assay day cells were washed 3× with assay puffer, 20 μL buffer remained in the wells after washing. 10 μL Ca6 kit (Cat. R8191 MolecularDevices) loading buffer in HBSS/HEPES was added to the cells and the plates were incubated with lid for 120 minutes at […]. 10 μL of compound or controls in HBSS/HEPES buffer/5% DMSO from the intermediate dilution plate were carefully added to the wells. […] Finally 10 μL of the agonist AITC 50 μM dissolved in HBSS/HEPES buffer/0.05% DMSO (final concentration 10 μM) was added to the wells followed by an additional read on the FLIPRtetra device for 10 minutes. The area under the signal curve (AUC) after AITC addition was used for IC50/% inhibition calculations
Data Evaluation and Calculation:
Each assay microtiter plate contained wells with vehicle (1% DMSO) controls instead of compound as controls for AITC induced luminescence (100% CTL; high controls) and wells with vehicle controls without AITC as controls for non-specific changes in luminescence (0% CTL; low controls).
The analysis of the data was performed by the calculation of the area under signal curve of the individual wells. Based on this values the % value for the measurement of each substance concentration was calculated (AUC(sample)−AUC(low))*100/(AUC(high)−AUC(low)) using MegaLab software (in house development). The IC50 values were calculated from the % control values using MegaLab software. Calculation: [y=(a−d)/(1+(x/c)^b)+d], a=low value, d=high value; x=cone M; c=IC50 M; b=hill; y=% ctrl

Data set [1] can be described thus: Assay B: Microsomal clearance. Particulars: pooled liver microsomes, 1 μM test compound, 37° C. Type of data set: in vitro ADME, human. The protocol:
Assay B: Microsomal Clearance:
The metabolic degradation of the test compound is assayed at 37° C. with pooled liver microsomes. The final incubation volume of 100 μl per time point contains TRIS buffer pH 7.6 at RT (0.1 M), magnesium chloride (5 mM), microsomal protein (1 mg/ml) and the test compound at a final concentration of 1 μM.
Following a short preincubation period at 37° C., the reactions are initiated by addition of beta-nicotinamide adenine dinucleotide phosphate, reduced form (NADPH, 1 mM) and terminated by transferring an aliquot into solvent after different time points (0, 5, 15, 30, 60 min). Additionally, the NADPH-independent degradation is monitored in incubations without NADPH, terminated at the last time point. The [%] remaining test compound after NADPH independent incubation is reflected by the parameter c(control) (metabolic stability). The quenched incubations are pelleted by centrifugation (10000 g, 5 min).
An aliquot of the supernatant is assayed by LC-MS/MS for the amount of parent compound. The half-life (t½ INVITRO) is determined by the slope of the semilogarithmic plot of the concentration-time profile.
The intrinsic clearance (CL_[…]) is calculated by considering the amount of protein in the incubation: CL_[…] [μl/min/mg protein]=(Ln 2/(half-life [min]*protein content [mg/ml]))*1000 CL_[…]_INVIVO [ml/min/kg]=(CL_[…] [μL/min/mg protein]×MPPGL [mg protein/g liver]×liver factor [g/kg body weight])/1000 Qh [%]=CL [ml/min/kg]/hepatic blood flow [ml/min/kg])
(§1) Hepatocellularity, human: 120×10e6 cells/g liver
(§2) Liver factor, human: 25.7 g/kg bodyweight
(§3) Blood flow, human: 21 ml/(min×kg)

The nature of data set [2]: Assay C: Hepatocyte clearance. Particulars: hepatocyte suspension, 1 μM test compound. Type of data set: in vitro ADME, human. The protocol: Assay C: Hepatocyte Clearance
The metabolic degradation of the test compound is assayed in a hepatocyte suspension. Hepatocytes (cryopreserved) are incubated in. Dulbecco's modified eagle medium (supplemented with 3.5 μg glucagon/500 mL, 2.5 mg insulin/500 mL and 3.75 mg/500 mL hydrocortison) containing 5% or 50% species serum.
Following a 30 min preincubation in an incubator (37° C., 10% CO2) 5 μl of test compound solution (80 μM; from 2 mM in DMSO stock solution diluted 1:25 with medium) are added into 395 μl hepatocyte suspension (cell density in the range 0.25-5 Mio cells/mL depending on the species, typically 1 Mio cells/mL; final concentration of test compound 1 μM, final DMSO concentration 0.05%).
The cells are incubated for six hours (incubator, orbital shaker) and samples (25 μl) are taken at 0, 0.5, 1, 2, 4 and 6 hours. Samples are transferred into acetonitrile and pelleted by centrifugation (5 min). The supernatant is transferred to a new 96-deepwell plate, evaporated under nitrogen and resuspended.
Decline of parent compound is analyzed by HPLC-MS/MS
CLint is calculated as follows CL_[…]=Dose/AUC=(C0/CD)/(AUD+clast/k)×1000/60. CO: initial concentration in the incubation [μM], CD: cell density of vital cells [10e6 cells/mL], AUD: area under the data [μM×h], clast: concentration of last data point [μM], k: slope of the regression line for parent decline [h-1].
The calculated in vitro hepatic intrinsic clearance can be scaled up to the intrinsic in vivo hepatic Clearance and used to predict hepatic in vivo blood clearance (CL) by the use of a liver model (well stirred model). CL_[…]_INVIVO [ml/min/kg]=(CL_[…] [μL/min/10e6 cells]×hepatocellularity [10e6 cells/g liver]×liver factor [g/kg body weight])/1000 CL [ml/min/kg]=CL_[…]_INVIVO [ml/min/kg]×hepatic blood flow [ml/min/kg]/(CL_[…]_INVIVO [ml/min/kg]+hepatic blood flow [ml/min/kg]) Qh [%]=CL [ml/min/kg]/hepatic blood flow [ml/min/kg])
as §1, §2, §3

Bounds are passed on as bounds.

Sequence of human TRPA1 ion channel (O75762 whole entry): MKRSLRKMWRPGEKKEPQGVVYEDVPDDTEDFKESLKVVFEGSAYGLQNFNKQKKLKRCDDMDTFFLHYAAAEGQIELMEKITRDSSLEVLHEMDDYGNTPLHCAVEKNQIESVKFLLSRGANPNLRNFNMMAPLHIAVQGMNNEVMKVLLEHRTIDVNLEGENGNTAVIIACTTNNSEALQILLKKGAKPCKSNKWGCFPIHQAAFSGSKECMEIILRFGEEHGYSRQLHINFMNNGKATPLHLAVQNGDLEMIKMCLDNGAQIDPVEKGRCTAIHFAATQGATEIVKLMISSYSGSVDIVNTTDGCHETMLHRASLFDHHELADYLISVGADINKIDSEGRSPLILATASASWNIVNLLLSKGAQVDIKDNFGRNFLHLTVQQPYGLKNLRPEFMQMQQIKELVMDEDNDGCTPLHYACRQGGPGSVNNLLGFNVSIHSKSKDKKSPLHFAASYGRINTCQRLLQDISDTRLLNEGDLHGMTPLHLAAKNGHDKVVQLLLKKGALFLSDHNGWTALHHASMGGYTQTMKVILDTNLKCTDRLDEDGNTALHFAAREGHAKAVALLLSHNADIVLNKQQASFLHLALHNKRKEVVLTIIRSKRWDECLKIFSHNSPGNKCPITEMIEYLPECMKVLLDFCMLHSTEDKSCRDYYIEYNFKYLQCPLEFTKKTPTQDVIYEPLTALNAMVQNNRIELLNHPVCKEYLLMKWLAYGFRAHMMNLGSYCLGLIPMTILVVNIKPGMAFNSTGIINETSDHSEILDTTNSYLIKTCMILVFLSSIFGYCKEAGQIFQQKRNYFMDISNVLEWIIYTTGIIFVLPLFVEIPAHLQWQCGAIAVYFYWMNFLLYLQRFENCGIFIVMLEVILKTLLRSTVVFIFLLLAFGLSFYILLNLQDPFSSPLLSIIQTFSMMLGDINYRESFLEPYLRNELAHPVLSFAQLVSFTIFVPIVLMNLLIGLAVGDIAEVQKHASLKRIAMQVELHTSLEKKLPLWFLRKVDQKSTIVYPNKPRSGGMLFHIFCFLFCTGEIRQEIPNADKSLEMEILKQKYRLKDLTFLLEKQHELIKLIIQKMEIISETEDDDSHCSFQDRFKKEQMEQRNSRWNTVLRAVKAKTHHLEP

With `Cc1c(C(N)=O)sc2ncn(Cc3nnn(C[C@H](O)c4ccc(Cl)cc4)n3)c(=O)c12` [Example 1, 3-({2-[(2R)-2-(4-chlorophenyl)-2-hydroxyethyl]-2H-1,2,3,4-tetrazol-5-yl}methyl)-5-methyl-4-oxo-3H,4H-thieno[2,3-d]pyrimidine-6-carboxamide], the IC50 at human TRPA1 ion channel is 11 nM. For the same compound, the “human LM [% Qh]” value in data set [1] was under 23 % Qh. In data set [2], the “human Hepatocytes [% Qh]” value was determined as 12 % Qh.
The matching figures for `Cc1c(C(N)=O)sc2ncn(Cc3nnn(C[C@H](O)c4ccc(Br)cc4)n3)c(=O)c12` [Example 2]: 12 nM, under 23 % Qh and 13 % Qh.
The corresponding values for `Cc1c(C(N)=O)sc2ncn(Cc3nnn(C[C@H](O)c4cc5cc(Cl)ccc5o4)n3)c(=O)c12` [Example 3] are 12 nM, under 23 % Qh and 40 % Qh.
The corresponding values for `Cc1c(C(N)=O)sc2ncn(Cc3nnn(C[C@H](O)c4ccc(Cl)s4)n3)c(=O)c12` [Example 4] are 12 nM, under 23 % Qh and 7 % Qh.
On to `Cc1c(C(N)=O)sc2ncn(Cc3nnn(C[C@H](O)c4ccc(F)c(F)c4)n3)c(=O)c12` [Example 5], for which the IC50 on human TRPA1 ion channel was found to be 74 nM. Further, the “human LM [% Qh]” value in data set [1] is under 23 % Qh.
Turning to `CN1CCc2c(sc3ncn(Cc4nnn(C[C@H](O)c5ccc(Cl)cc5)n4)c(=O)c23)C1=O` [Example 7], at human TRPA1 ion channel, the IC50 amounted to 16 nM. Also, the “human LM [% Qh]” value in data set [1] stood at 36 % Qh. The “human Hepatocytes [% Qh]” value in data set [2] turned out to be 26 % Qh.
The corresponding values for `Cc1c(C(N)=O)sc2ncn(Cc3nnn(C[C@H](O)c4cc5ccc(Cl)cc5o4)n3)c(=O)c12` [Example 8] are 15 nM, 43 % Qh and 36 % Qh.
The matching figures for `Cc1ccc([C@@H](O)Cn2nnc(Cn3cnc4sc(C(N)=O)c(C)c4c3=O)n2)cc1` [Example 9]: 21 nM, under 23 % Qh and 16 % Qh.
In the case of `Cc1c(C(N)=O)sc2ncn(Cc3nnn(C[C@H](O)c4ccc5c(c4)OCO5)n3)c(=O)c12` [Example 10], the IC50 on human TRPA1 ion channel was 28 nM. In data set [1], the “human LM [% Qh]” value was under 23 % Qh. For the same compound, in data set [2], the “human Hepatocytes [% Qh]” value is 14 % Qh.
The corresponding values for `Cc1c(C(N)=O)sc2ncn(Cc3nnn(C[C@H](O)c4cc5cc(F)ccc5o4)n3)c(=O)c12` [Example 11] are 25 nM, under 23 % Qh and 28 % Qh.
The matching figures for `Cc1c(C(N)=O)sc2ncn(Cc3nnn(C[C@H](O)c4cc5ccc(F)cc5o4)n3)c(=O)c12` [Example 12]: 17 nM, under 23 % Qh and 31 % Qh.
The matching figures for `CNC(=O)c1sc2ncn(Cc3nnn(C[C@H](O)c4ccc(Cl)cc4)n3)c(=O)c2c1C` [Example 13]: 20 nM, under 23 % Qh and 9 % Qh.
Consider `CNC(=O)c1sc2ncn(Cc3nnn(C[C@H](O)c4ccc5c(c4)OCO5)n3)c(=O)c2c1C` [Example 14], for which, on human TRPA1 ion channel, the IC50 was determined as 76 nM. Besides, in data set [1], the “human LM [% Qh]” value was under 23 % Qh. Also, in data set [2], the “human Hepatocytes [% Qh]” value was determined as 13 % Qh.
The corresponding values for `CNC(=O)c1sc2ncn(Cc3nnn(C[C@H](O)c4ccc(C)cc4)n3)c(=O)c2c1C` [Example 15] are 38 nM, under 23 % Qh and 18 % Qh.
The corresponding values for `CNC(=O)c1sc2ncn(Cc3nnn(C[C@H](O)c4ccc(Cl)s4)n3)c(=O)c2c1C` [Example 16] are 37 nM, under 23 % Qh and 17 % Qh.
The corresponding values for `O=C1NCCc2c1sc1ncn(Cc3nnn(C[C@H](O)c4ccc(Cl)s4)n3)c(=O)c21` [Example 17] are 14 nM, under 23 % Qh and 22 % Qh.
Consider `O=C1NCCc2c1sc1ncn(Cc3nnn(C[C@H](O)c4cc5cc(Cl)ccc5o4)n3)c(=O)c21` [Example 18], for which the IC50 on human TRPA1 ion channel was found to be 14 nM. In addition, in data set [1], the “human LM [% Qh]” value is recorded as 32 % Qh. Besides, the “human Hepatocytes [% Qh]” value in data set [2] is 48 % Qh.
The matching figures for `O=C1NCCc2c1sc1ncn(Cc3nnn(C[C@H](O)c4cc5cc(F)ccc5o4)n3)c(=O)c21` [Example 19]: 31 nM, under 23 % Qh and 26 % Qh.
The corresponding values for `Cc1ccc([C@@H](O)Cn2nnc(Cn3cnc4sc5c(c4c3=O)CCNC5=O)n2)cc1` [Example 20] are 14 nM, under 23 % Qh and 28 % Qh.
The corresponding values for `N#Cc1ccc([C@@H](O)Cn2nnc(Cn3cnc4sc5c(c4c3=O)CCNC5=O)n2)s1` [Example 21] are 80 nM, 27 % Qh and 5 % Qh.
